Data as given in EP3727588B1, “ACTIVATOR PEPTIDES OF THE ENZYME ADAM 10 AND RELATED USES IN THE TREATMENT OF ALZHEIMER'S DISEASE” (UNIVERSITA' DEGLI STUDI DI MILANO, priority 2017, dated 2019).
Peptide text beside a SMILES is read from it.

Tests used:
[1] = blood-brain barrier crossing, anti-TAT immunohistochemistry on coronal brain sections; format: in vivo; conditions: C57BL/6 mice, intraperitoneal injection 3 nmoles/g, 24 hours
Protocol: For the immunohistochemistry analyses, mice treated with the peptide were anaesthetized deeply and subjected to transcardial perfusion with 4% paraformaldehyde (prepared in PBS, pH 7.2-7.4), through the use of a peristaltic pump. The fixing liquid was inserted into the blood circulation through the left ventricle and after 10 minutes the brain was isolated. The sample was then post-fixed for 1 hour and 30 minutes at 4°C, then washed with PBS 1X and placed o/n in a 30% sucrose solution. The following day the sample was washed again with PBS 1X cut with the vibratome obtaining coronal sections of 50µm. Then the sections were stained through free-floating immunofluorescence technique. The fluorescence images were acquired using the Zeiss Confocal LSM510 Meta system with 63x objective at a resolution of 1024x1024 pixels. […]
The coronal sections were incubated with a specific antibody for the identification of the MAP2 neurons, and an antibody able to recognize the TAT sequence of HIV-1 present in the CPPs. As shown by the arrows in Figure 6, the presence of a specific signal of the anti-TAT antibody can be identified, which can only be detected in the coronal sections of brain of animals treated with CPPs. […] In the brain of animals only treated with saline solution (Figure 6, panel A), such signal cannot be detected.

ADAM10/AP2 complex = molecular target: T1, ADAM10/AP2 complex (Rattus norvegicus, UniProt P62944); assay: co-immunoprecipitation of ADAM10 with AP2 (α-adaptin) in acute hippocampal slices; format: cell-based; conditions: 10 µM, 30 minutes
T1 construct: endogenous in cells; host or cells: primary hippocampal neurons of rat embryos, DIV14
Protocol: (§1) The acute hippocampal slices were obtained from rat brain. After carefully removing the meninges, the hippocampus was isolated and dissected using the McIlwain tissue chopper. The hippocampal slices were then transferred into supports containing Krebs buffer, in the presence of a constant flow of 95% O2 and 5% CO2 5% (v/v). The acute slices were kept for 45 min at ambient temperature before proceeding with treatment with the peptide.
(§2) For the treatments of the acute hippocampal slices, all the peptides were diluted in Krebs buffer at a concentration of 10µM. The treatments were performed for 30 minutes and subsequently the sample was immediately frozen.
(§3) For the co-immunoprecipitation experiments, aliquots of 40-100 µg of lysate were incubated at 4°C in RIA 1X buffer (NaCl 200 mM, EDTA 10 mM, Na2HPO4 10 mM, Nonidet P-40, 0.5% and 0.1% SDS) in a final volume of 150 µl with 1-2 µg of antibody. The following day the protein complex A/G (Santa Cruz Biotechnology) was added, conjugated with agarose marbles, and the incubation was continued for 2 hours. After three washes with RIA buffer the samples were loaded onto SDS-PAGE and analysed through Western Blot.
(§4) The quantization of the Western Blot analyses was performed through an image analysis program (ImageLab -BioRad). The levels of proteins were expressed as optical density (OD) related to the different measurements and were normalized on respective tubulin levels.
(§5) The samples were then processed, and the total homogenate was used to evaluate the interaction levels between ADAM10 and the complex AP2. The co-immunoprecipitation experiment (co-IP), performed using an anti-ADAM10 antibody, made it possible to verify that two of the three peptides (PEP2 (SEQ ID NO:2) and PEP3 (SEQ ID NO:1)) were able to interfere with the interaction between ADAM10 and α-adaptin, one of the subunits that constitutes the complex AP2 (Figure 1A).

[2] = test system: T2, ADAM10/AP2 complex (Rattus norvegicus); assay: as above; format: cell-based; conditions: 10 µM, 30 min
T2 construct: endogenous in cells; host or cells: primary hippocampal neurons of rat embryos, DIV14
Protocol: as §1, §2, §3, §4, §5

[3] = test system: dendritic spines of the hippocampal neurons; assay: dendritic spine morphology and density in hippocampus, C57BL/6 mice; format: in vivo; conditions: 14 days' treatment
Protocol: C57/BL6 adult mice were treated for 14 days with daily intraperitoneal injection of saline solution or peptides at a dose of 3 nmol/g (6-10 animals per experimental group). The animals were maintained in an enclosure at 25 ± 2 °C with an alternating light/dark cycle of 12 hours and had free access to water and food in the form of pellets (standard diet).
For the dendritic spine analysis, the protocol used is the one previously described by Kim et al, and envisages the use of DilDye lipophilic tracer (Invitrogen) to allow the dendritic spines to be viewed under the confocal microscope. The analysis of the dimensions and morphology of the spines was performed with ImageJ software.
The spines were classified, based on their morphology, into three different categories: thin, stubby (without a well-defined "neck") and mushroom shaped. To evaluate the possible effect induced by PEP3 on the spine morphology, two animals for each experimental group were perfused after 14 days of treatment and the brain was post-fixed in PFA and cut with a vibratome. To view the dendritic spines the lipophilic tracer DilDye was used. From the images acquired from the confocal microscope the number, length and width of the head of the dendritic spines of the hippocampal neurons were measured.

T1 sequence (P18484 whole entry): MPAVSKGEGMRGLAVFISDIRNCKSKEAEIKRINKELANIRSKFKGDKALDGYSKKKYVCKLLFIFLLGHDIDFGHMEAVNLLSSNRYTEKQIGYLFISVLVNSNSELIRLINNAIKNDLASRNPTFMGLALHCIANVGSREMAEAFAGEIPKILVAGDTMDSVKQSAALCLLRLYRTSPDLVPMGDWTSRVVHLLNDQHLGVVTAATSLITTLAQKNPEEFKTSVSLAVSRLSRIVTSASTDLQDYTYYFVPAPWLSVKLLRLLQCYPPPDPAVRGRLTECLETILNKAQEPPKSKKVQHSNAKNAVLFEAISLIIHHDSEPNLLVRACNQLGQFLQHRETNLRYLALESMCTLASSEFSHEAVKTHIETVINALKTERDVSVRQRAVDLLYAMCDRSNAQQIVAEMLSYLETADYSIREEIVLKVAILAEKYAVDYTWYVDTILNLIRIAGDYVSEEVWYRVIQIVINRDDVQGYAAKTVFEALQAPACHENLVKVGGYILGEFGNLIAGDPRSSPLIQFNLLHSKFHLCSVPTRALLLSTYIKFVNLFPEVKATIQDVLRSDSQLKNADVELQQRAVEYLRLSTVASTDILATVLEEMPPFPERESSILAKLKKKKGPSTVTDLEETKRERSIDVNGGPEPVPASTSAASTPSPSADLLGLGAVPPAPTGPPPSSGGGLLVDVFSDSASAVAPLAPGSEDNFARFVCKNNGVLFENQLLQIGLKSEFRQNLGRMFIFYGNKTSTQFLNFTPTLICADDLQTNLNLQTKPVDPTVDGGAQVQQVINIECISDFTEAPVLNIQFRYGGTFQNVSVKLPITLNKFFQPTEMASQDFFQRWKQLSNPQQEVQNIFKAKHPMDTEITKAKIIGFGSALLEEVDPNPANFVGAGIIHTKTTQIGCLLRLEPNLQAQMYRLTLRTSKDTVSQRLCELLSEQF
T1 sequence (P62744 whole entry, further chain): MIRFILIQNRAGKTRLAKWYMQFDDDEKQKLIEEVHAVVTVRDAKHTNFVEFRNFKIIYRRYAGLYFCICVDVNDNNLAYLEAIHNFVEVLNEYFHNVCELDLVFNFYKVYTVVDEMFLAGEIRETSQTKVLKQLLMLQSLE
T1 sequence (P84092 whole entry, further chain): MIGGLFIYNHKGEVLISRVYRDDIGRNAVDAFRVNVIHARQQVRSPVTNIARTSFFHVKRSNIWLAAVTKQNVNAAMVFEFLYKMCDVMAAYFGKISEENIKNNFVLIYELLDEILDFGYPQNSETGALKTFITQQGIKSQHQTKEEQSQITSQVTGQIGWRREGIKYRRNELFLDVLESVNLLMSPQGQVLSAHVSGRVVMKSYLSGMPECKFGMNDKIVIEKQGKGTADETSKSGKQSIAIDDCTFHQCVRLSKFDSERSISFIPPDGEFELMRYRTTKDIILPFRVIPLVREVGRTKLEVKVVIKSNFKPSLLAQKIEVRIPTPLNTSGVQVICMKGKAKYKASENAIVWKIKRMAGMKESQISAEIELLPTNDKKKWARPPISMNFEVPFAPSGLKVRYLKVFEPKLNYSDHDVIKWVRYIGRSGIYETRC
T1 sequence (P62944 whole entry): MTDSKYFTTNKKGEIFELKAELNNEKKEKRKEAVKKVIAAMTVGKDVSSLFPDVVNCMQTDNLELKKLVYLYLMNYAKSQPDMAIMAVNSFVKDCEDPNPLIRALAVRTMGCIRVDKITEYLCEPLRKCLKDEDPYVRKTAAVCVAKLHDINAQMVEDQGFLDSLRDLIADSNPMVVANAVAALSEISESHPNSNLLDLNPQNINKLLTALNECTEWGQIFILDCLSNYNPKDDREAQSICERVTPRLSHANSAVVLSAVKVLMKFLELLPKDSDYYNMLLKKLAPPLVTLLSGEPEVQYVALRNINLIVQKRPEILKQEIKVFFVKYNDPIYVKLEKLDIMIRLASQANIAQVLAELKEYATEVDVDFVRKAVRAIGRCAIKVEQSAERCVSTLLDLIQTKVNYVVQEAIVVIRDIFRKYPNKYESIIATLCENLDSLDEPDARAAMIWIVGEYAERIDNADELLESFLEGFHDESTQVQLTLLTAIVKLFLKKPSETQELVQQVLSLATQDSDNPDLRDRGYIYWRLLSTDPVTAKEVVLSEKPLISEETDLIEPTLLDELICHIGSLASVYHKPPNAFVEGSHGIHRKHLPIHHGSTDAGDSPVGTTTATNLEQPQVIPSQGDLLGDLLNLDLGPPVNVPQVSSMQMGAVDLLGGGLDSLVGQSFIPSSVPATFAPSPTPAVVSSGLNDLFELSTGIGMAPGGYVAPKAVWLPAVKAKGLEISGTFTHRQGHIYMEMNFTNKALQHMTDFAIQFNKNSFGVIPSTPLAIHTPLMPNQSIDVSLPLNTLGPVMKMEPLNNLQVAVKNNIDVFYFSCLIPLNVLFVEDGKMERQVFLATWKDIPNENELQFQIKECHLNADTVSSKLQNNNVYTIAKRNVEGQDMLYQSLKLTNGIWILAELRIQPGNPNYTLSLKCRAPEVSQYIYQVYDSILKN
T2 sequence (P18484 whole entry): as the sequence (P18484 whole entry) above
T2 sequence (P62744 whole entry, further chain): as the sequence (P62744 whole entry, further chain) above
T2 sequence (P84092 whole entry, further chain): as the sequence (P84092 whole entry, further chain) above
T2 sequence (P62944 whole entry, further chain): as the sequence (P62944 whole entry) above

N=C(N)NCCC[C@H](NC(=O)CNC(=O)[C@@H](N)Cc1ccc(O)cc1)C(=O)N[C@@H](CCCCN)C(=O)N[C@@H](CCCCN)C(=O)N[C@@H](CCCNC(=N)N)C(=O)N[C@@H](CCCNC(=N)N)C(=O)N[C@@H](CCC(N)=O)C(=O)N[C@@H](CCCNC(=N)N)C(=O)N[C@@H](CCCNC(=N)N)C(=O)N[C@@H](CCCNC(=N)N)C(=O)NCC(=O)NCC(=O)N[C@@H](CO)C(=O)NCC(=O)N[C@@H](CCC(N)=O)C(=O)N1CCC[C@H]1C(=O)N1CCC[C@H]1C(=O)N[C@@H](CCCNC(=N)N)C(=O)N[C@@H](CCC(N)=O)C(=O)N[C@@H](CCCNC(=N)N)C(=O)N1CCC[C@H]1C(=O)N[C@@H](CCCNC(=N)N)C(=O)NCC(=O)O [PEP3] (H-YGRKKRRQRRRGGSGQPPRQRPRG-OH)
capacity to cross the blood-brain barrier (BBB) [1]: can cross the BBB and penetrate into the neuron cells
reduction of the interaction between ADAM10 and α-adaptin (ADAM10/AP2 complex): 62.6%
PEP/inPEP ratio of optical density (OD), ADAM10/AP2 complex (α-adaptin) [2]: 37.40 ± 21.76%
density of the dendritic spines [3]: 10.30±1.11 n. of spines/10µm
length of mushroom shaped spines [3]: 0.73±0.02
length of the spines [3]: 0.75±0.02 µm
percentage of mushroom shaped spines [3]: 28.83 ± 2.18%
percentage of stubby spines [3]: 45.25 ± 2.03%
percentage of thin spines [3]: 25.92 ± 1.68%
width of the head of spines [3]: 0.75±0.01 µm
